Data taken from US6656936B1, “Carnitine analogues as topical, microbicidal spermicides” (Virginia Tech Intellectual Properties, Inc., priority 1999, dated 2003).
≈ marks a conversion by molar mass, not a printed value.

Each compound was assayed on human sperm (semen samples) (assay: Spermicidal activity in the Sander-Cramer test). Conditions: Table 1; initial conc. 10 mg/ml in dH2O; n=10.
Type: cell-based
Description: Semen samples were collected from healthy human volunteers: only specimens with >60×10^6 motile sperm/mL and >50% motility were used. Two-fold serial dilutions of the compounds were prepared in 0.9% saline and incubated with semen samples for 20 seconds. Sperm were assessed under the microscope and positive dilutions (i.e. all observed sperm were immotile) were further incubated at 37° C. for 1 hour with 2 vol. of buffer, and re-examined for sperm motility. If no motile sperm were seen, the positive score was maintained. The Minimum Effective Concentration (MEC) for the compound was calculated using the highest sperm immobilizing dilution and its initial concentration.

Compound	Highest Spermicidal Dilution (1/X)	MEC (Minimum Effective Concentration) [mg/mL]
CCCCCCCCCCCC[C@@]1(O)C[N+](C)(C)C[C@@H](CC(=O)[O-])O1 [Compound Z-12]	27.2 ± 2.3 1/X	0.407 ± 0.7
CCCCCCCCCCCCC[C@@]1(O)C[N+](C)(C)C[C@@H](CC(=O)[O-])O1 [Compound Z-13]	48.0 ± 5.1 1/X	0.235 ± 0.025
Nonoxynol-9 [Compound N-9, reference compound]	83.2 ± 18.2 1/X	0.144 ± 0.011

Same assay, conditions: Table 4; dH2O

Compound	MEC (Minimum Effective Concentration per Sander-Cramer assay) [mg/mL]
Nonoxynol-9 [Compound N-9, reference compound]	0.144 ± 0.011

Same assay, conditions: Table 5

Compound	spermicidal activity, in words
CCCCCCCCCCCCCCCC1(O)C[N+](C)(C)CC(CC(=O)[O-])O1 (racemic) [(rac)-Z-15]	slightly more active than the two enantiomers and significantly more active than N-9

Same assay, conditions: Table 5; initial conc. 10 mg/ml in dH2O; n=10

Compound	Highest Spermicidal Dilution (1/X)	MEC [mg/mL]
CCCCCCCCCCCCCCCC1(O)C[N+](C)(C)CC(CC(=O)[O-])O1 (racemic) [(rac)-Z-15]	115.2 ± 23.6 1/X	0.117 ± 0.016
Nonoxynol-9 [Compound N-9, reference compound]	33.6 ± 3.5 1/X	0.329 ± 0.035

Same assay, conditions: Table 6

Compound	spermicidal activity, in words
CCCCCCCCCCCCCCCC1(O)C[N+](C)(C)CC(CC(=O)[O-])O1 (racemic) [(rac)-Z-15]	activity equal to that of the R and S enantiomers

Same assay, conditions: Table 6; initial conc. 10 mg/mL in dH2O; n=10

Compound	Highest Spermicidal Dilution (1/X)	MEC [mg/mL]
CCCCCCCCCCCCCCCC1(O)C[N+](C)(C)CC(CC(=O)[O-])O1 (racemic) [(rac)-Z-15]	108.80 ± 19.20 1/X	0.113
Nonoxynol-9 [Compound N-9, reference compound]	73.6 ± 8.4 1/X	0.156

What follows are compounds tested on sperm penetration in bovine cervical mucus (assay: Cervical mucus biodiffusion, Double-End test). Conditions: testing concentration ten fold MEC; 60 minutes incubation; n=12.
Description: The cervical mucus Biodiffusion properties of (R)Z-14 and (R)-Z-15 analogues were tested in comparison to that of N-9 using the Double-End test (Doncel. 1994). In this test, compound solutions (in 0.9% saline) were incubated for 60 minutes with a 7 cm capillary tube containing bovine cervical mucus (Penetrak®, Biochem Immuno System, Norwell, Mass.) opened at one end. After such incubation, the tubes' open end, which had been in contact with the compound, was sealed. Subsequently, the tubes were cut open at 20 mm from the initial opening, inverted, and immersed in semen so as to allow sperm penetration in an opposite direction to that of the compound diffusion. Sperm cease penetration when they encounter a bioactive concentration of the test compound. Thus, the lower the sperm penetration, the greater the compound's biodiffusion. In addition, the spermicidal activity of the analogues was tested again.

Compound	DET % control (test sperm penetration compared to control) [% control]
Nonoxynol-9 [Compound N-9, reference compound]	17.5 ± 0.7

These compounds were tested on HIV-1 (RF strain) (assay: In vitro anti-HIV cell-free inactivation assay). Conditions: 0.032 mg/mL, 2 minutes exposure.
Type: cell-based
Description: The assay for in vitro anti-HIV activity followed the previously described procedure (Resnick et al., 1990). An infectious suspension of HIV-1 (RF strain, NIH 1983) was exposed to the compounds for 2 minutes. Immediately after, the mixture was 10-fold serially diluted with medium to terminate compound effect, and the dilutions were incubated with MT-2 target cells at 37° C. The cells were maintained in growth medium at 37° C. for 6 days. HIV-induced cytopathology (syncytium formation) was assessed on day 6 after infection, as was cell viability.

Compound	reduction of infective viral titer [log units]
CCCCCCCCCCCC[C@@]1(O)C[N+](C)(C)C[C@@H](CC(=O)[O-])O1 [Compound Z-12]	0.0
CCCCCCCCCCCCC[C@@]1(O)C[N+](C)(C)C[C@@H](CC(=O)[O-])O1 [Compound Z-13]	0.5
Nonoxynol-9 [Compound N-9, reference compound]	0.5

Same assay, conditions: 0.1 mg/mL, 2 minutes exposure

Compound	reduction of infective viral titer [log units]
CCCCCCCCCCCC[C@@]1(O)C[N+](C)(C)C[C@@H](CC(=O)[O-])O1 [Compound Z-12]	0.3
CCCCCCCCCCCCC[C@@]1(O)C[N+](C)(C)C[C@@H](CC(=O)[O-])O1 [Compound Z-13]	1.5
Nonoxynol-9 [Compound N-9, reference compound]	2.2

Same assay, conditions: 0.32 mg/mL, 2 minutes exposure

Compound	reduction of infective viral titer [log units]
CCCCCCCCCCCC[C@@]1(O)C[N+](C)(C)C[C@@H](CC(=O)[O-])O1 [Compound Z-12]	2.0
CCCCCCCCCCCCC[C@@]1(O)C[N+](C)(C)C[C@@H](CC(=O)[O-])O1 [Compound Z-13]	2.7
Nonoxynol-9 [Compound N-9, reference compound]	3.5

Same assay, conditions: 1 mg/mL, 2 minutes exposure

Compound	reduction of infective viral titer
CCCCCCCCCCCC[C@@]1(O)C[N+](C)(C)C[C@@H](CC(=O)[O-])O1 [Compound Z-12]	2.8 log units
CCCCCCCCCCCCC[C@@]1(O)C[N+](C)(C)C[C@@H](CC(=O)[O-])O1 [Compound Z-13]	3.3 log units
Nonoxynol-9 [Compound N-9, reference compound]	≧4.0^ log units

Same assay, conditions: 3.2 mg/mL, 2 minutes exposure

Compound	reduction of infective viral titer
CCCCCCCCCCCC[C@@]1(O)C[N+](C)(C)C[C@@H](CC(=O)[O-])O1 [Compound Z-12]	≧3.5 log units
CCCCCCCCCCCCC[C@@]1(O)C[N+](C)(C)C[C@@H](CC(=O)[O-])O1 [Compound Z-13]	3.5 log units

Same assay, conditions: 10 mg/mL, 2 minutes exposure

Compound	reduction of infective viral titer
CCCCCCCCCCCC[C@@]1(O)C[N+](C)(C)C[C@@H](CC(=O)[O-])O1 [Compound Z-12]	≧4.0^ log units
CCCCCCCCCCCCC[C@@]1(O)C[N+](C)(C)C[C@@H](CC(=O)[O-])O1 [Compound Z-13]	3.5 log units

Same assay, conditions: Table 2

Compound	anti-HIV activity, in words
Nonoxynol-9 [Compound N-9, reference compound]	slightly more active than these compounds

What follows are compounds tested on Candida albicans (assay: Inhibition of growth of Candida albicans (MIC)). Conditions: C. albicans, 4 days at 28° C.
Type: cell-based
Description: The Minimum Inhibitory Concentrations (MICs) of Z-10-Z-15 were measured by determining the inhibition of growth of C. albicans in a solution of mineral salts plus yeast extract (See Standard Practice for Determining Resistance of Synthetic Polymeric Material to Fungi. American Society for Testing and Materials (ASTM) Standards on Materials and Environmental Microbiology, 1st Ed., 1987), and amended with glucose (10 g/L) and yeast extract (1 g/L). An aliquot (250 μl) of sterile medium was dispensed into each well of a 96-well microplate. Stock solutions were prepared by dissolving test compounds in 50% (v/v) aqueous dimethylsulfoxide (DMSO). Each well (plus controls) was then inoculated with 5 μl of a suspension of C. albicans. The suspension was then adjusted to provide OD686=0.28. This density contains ca. 2.5×10^7 colony forming units (CFU)^2/mL. The microplates were incubated in the dark for 4 days at 28° C.

Compound	MIC [µg/mL]
CCCCCCCCCCCC[C@@]1(O)C[N+](C)(C)C[C@@H](CC(=O)[O-])O1 [Compound Z-12]	80 to 100
CCCCCCCCCCCCC[C@@]1(O)C[N+](C)(C)C[C@@H](CC(=O)[O-])O1 [Compound Z-13]	40 (≈ 108 µM)
